In US20050090504A1, “Piperidinyl and piperazinyl compounds substituted with bicyclo-heterocyclylalkyl groups useful as CCR3 receptor antagonists” (priority 2003, published 2005):

Experiments:
CCR-3 receptor = biological target: T1, CCR-3 receptor (Homo sapiens, UniProt P51677); test: CCR-3 Receptor Binding Assay, inhibition of 125I eotaxin binding to CCR-3 L1.2 transfectant cells; conditions: CCR-3 L1.2 transfected cells, 1 hour at rt., read-out: CCR3 Binding IC50
T1 construct: expressed in transfected cells; host or cells: L1.2 (murine pre-beta lymphoma line)
T1 sequence (P51677 1-355): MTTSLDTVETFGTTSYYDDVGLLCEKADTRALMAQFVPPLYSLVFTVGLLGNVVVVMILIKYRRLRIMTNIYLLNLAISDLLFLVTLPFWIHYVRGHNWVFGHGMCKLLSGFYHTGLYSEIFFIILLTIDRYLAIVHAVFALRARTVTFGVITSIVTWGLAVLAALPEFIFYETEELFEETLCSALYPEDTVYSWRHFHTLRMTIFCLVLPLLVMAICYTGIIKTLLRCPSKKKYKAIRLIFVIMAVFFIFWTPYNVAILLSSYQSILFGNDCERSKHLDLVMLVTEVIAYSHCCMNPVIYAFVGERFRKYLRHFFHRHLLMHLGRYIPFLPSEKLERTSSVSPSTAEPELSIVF
Procedure: The CCR-3 antagonistic activity of the compounds of the invention was determined by their ability to inhibit the binding of ^125 I eotaxin to CCR-3 L1.2 transfectant cells (see Ponath, P. D. et al., J. Exp. Med., Vol. 183, 2437-2448, (1996)).
The assay was performed in Costar 96-well polypropylene round bottom plates. Test compounds were dissolved in DMSO and then diluted with binding buffer (50 mM HEPES, 1 mM CaCl2, 5 mM MgCl2, 0.5% bovine serum albumin (BSA), 0.02% sodium azide, pH 7.24) such that the final DMSO concentration was 2%. 25 μl of the test solution or only buffer with DMSO (control samples) was added to each well, followed by the addition of 25 μl of ^125I-eotaxin ([…]) (NEX314, New England Nuclear, Boston, Mass.) and 1.5×10^5 of the CCR-3 L1.2 transfected cells in 25 μl binding buffer. The final reaction volume was 75 μl.
After incubating the reaction mixture for 1 hour at rt., the reaction was terminated by filtering the reaction mixture through polyethylenimine treated Packard Unifilter GF/C filter plate (Packard, Chicago, Ill.). The filters were washed four times with ice cold wash buffer containing 10 mm HEPES and 0.5M sodium chloride (pH 7.2) and dried at 65° C. for approximately 10 minutes. 25 μl/well of Microscint-20® scintillation fluid (Packard) was added and the radioactivity retained on the filters was determined by using the Packard TopCount®. […]

Compound: Cc1ccc2oc(NC(CN3CCN(Cc4ccc(Cl)c(Cl)c4)CC3)C(C)C)nc2c1 (stereo not drawn) [Example 9, {1-[4-(3,4-Dichloro-benzyl)-piperazin-1-ylmethyl]-2-methyl-propyl}-(5-methyl-benzooxazol-2-yl)-amine]
- melting point: 155.3 to 156.9 °C

Compound: CC(C)(C)[C@H](CN1CCC(Cc2ccc(Cl)c(Cl)c2)CC1)Nc1nc2ccccc2o1 [Example 18, 1-[(R)-2-(benzooxazol-2-ylamino)-3,3-dimethyl-butyl]-4-(3,4-dichloro-benzyl)-piperidinium; chloride]
- IC50 (CCR-3 receptor): 150 nM

Compound: CC(C)C(CN1CCN(Cc2ccc(Cl)c(Cl)c2)CC1)Nc1nc2ccccc2o1 (stereo not drawn) [Example 28, 1-[2-(Benzooxazol-2-ylamino)-3-methyl-butyl]-4-(3,4-dichloro-benzyl)-piperazin-1-ium; chloride]
- IC50 (CCR-3 receptor): 970 nM
